Results as given in ChEMBL document CHEMBL3751830, “Design and discovery of new pyrimidine coupled nitrogen aromatic rings as chelating groups of JMJD3 inhibitors” (Bioorg Med Chem Lett, 2016).
Each block holds one molecule with its values, some of them ahead of it. Active and inactive are the calls of the source. The rule behind the calls is not given here.

Experiments:
[1] = target: T1, Lysine-specific demethylase 6B (Homo sapiens, UniProt O15054); assay: Inhibition of JMJD3 (unknown origin) using biotinylated H3K27me3 peptide as substrate at 10 uM after 1 hr by AlphaLISA assay
[2] = target: T1, Lysine-specific demethylase 6B
Description: Inhibition of JMJD3 (unknown origin) using biotinylated H3K27me3 peptide as substrate after 1 hr by AlphaLISA assay

RAW264.7 [3] = assay: Inhibition of LPS-induced TNFalpha production in mouse RAW264.7 cells after 24 hrs by ELISA; type: functional, cell-based
RAW264.7 [4] = assay: Inhibition of LPS-induced TNFalpha production in mouse RAW264.7 cells 0.82 uM after 24 hrs by ELISA; type: functional, cell-based
CYP2C19 = CYP2C19 (Homo sapiens, UniProt P33261); assay: Inhibition of CYP2C19 in human liver microsomes at 10 uM after 20 mins; type: ADME
[5] = Half life in human liver microsomes at 1 uM by LC/MS/MS analysis; type: ADME
CYP2D6 = CYP2D6 (Homo sapiens, UniProt P10635); assay: Inhibition of CYP2D6 in human liver microsomes at 10 uM after 20 mins; type: ADME
CYP1A2 = target: T2, CYP1A2 (Homo sapiens, UniProt P05177); assay: Inhibition of CYP1A2 in human liver microsomes at 10 uM after 20 mins; type: ADME
T2 sequence (P05177 whole entry): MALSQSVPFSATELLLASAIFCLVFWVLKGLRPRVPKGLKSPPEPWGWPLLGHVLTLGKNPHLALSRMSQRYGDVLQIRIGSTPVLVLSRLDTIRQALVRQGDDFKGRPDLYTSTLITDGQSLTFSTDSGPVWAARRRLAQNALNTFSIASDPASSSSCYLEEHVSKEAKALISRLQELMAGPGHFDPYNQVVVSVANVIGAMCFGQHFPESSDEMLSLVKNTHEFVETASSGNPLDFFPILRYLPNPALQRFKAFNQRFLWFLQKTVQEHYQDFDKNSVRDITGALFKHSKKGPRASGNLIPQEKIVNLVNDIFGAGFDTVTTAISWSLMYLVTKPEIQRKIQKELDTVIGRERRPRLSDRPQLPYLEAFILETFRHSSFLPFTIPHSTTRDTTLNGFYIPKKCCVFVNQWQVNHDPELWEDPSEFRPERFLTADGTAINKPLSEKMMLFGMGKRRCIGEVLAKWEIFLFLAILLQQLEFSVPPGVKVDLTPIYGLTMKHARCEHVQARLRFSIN

CYP2C9 = CYP2C9 (Homo sapiens, UniProt P11712); assay: Inhibition of CYP2C9 in human liver microsomes at 10 uM after 20 mins; type: ADME
[6] = Intrinsic clearance in human liver microsomes at 1 uM up to 30 mins by LC/MS/MS analysis; type: ADME; settings: read-out: CLH
CYP3A4 = CYP3A4 (Homo sapiens, UniProt P08684); assay: in vitro; settings: liver microsomes
Chain of CYP3A4 (P08684 whole entry): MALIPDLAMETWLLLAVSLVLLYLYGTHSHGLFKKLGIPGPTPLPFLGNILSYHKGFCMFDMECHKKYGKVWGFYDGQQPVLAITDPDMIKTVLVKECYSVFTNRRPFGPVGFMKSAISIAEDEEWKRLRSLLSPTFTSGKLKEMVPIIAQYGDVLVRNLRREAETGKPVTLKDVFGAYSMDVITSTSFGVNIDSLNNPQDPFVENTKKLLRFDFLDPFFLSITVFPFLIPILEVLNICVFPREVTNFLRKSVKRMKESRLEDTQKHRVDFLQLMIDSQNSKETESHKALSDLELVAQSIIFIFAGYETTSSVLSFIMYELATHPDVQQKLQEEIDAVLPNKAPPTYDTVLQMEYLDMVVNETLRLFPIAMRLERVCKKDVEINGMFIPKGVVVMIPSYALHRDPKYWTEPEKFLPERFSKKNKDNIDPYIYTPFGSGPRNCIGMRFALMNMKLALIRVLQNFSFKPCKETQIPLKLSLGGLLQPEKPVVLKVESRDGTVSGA
Description: Inhibition of CYP3A4 in human liver microsomes at 10 uM after 20 mins

Chain of CYP2C9 (P11712 whole entry): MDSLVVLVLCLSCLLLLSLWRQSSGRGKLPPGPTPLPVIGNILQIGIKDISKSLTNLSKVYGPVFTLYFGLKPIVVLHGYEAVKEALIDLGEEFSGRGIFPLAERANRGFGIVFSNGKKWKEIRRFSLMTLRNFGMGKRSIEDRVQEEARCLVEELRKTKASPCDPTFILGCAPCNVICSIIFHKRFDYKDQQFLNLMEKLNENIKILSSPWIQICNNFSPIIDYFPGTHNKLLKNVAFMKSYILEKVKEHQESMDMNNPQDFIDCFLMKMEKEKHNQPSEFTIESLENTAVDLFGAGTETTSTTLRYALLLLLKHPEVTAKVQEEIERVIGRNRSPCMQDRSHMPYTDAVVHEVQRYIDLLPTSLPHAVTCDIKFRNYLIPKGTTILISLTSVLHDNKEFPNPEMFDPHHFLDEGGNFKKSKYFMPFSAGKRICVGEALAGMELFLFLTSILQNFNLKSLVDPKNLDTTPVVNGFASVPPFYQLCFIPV
Chain of CYP2C19 (P33261 whole entry): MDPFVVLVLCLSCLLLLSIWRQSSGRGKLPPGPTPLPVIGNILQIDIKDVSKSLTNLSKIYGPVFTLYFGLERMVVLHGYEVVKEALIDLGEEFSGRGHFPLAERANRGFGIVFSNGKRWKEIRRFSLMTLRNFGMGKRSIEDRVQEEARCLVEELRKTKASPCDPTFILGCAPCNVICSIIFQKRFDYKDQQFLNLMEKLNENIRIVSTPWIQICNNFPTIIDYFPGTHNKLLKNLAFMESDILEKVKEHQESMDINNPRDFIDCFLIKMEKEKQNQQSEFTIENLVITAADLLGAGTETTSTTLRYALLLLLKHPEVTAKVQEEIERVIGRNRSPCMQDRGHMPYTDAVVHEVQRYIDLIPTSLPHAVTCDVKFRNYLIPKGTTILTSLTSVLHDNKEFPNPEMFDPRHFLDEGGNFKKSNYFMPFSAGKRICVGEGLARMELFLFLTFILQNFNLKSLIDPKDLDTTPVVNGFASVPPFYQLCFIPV
T1 sequence (O15054 whole entry): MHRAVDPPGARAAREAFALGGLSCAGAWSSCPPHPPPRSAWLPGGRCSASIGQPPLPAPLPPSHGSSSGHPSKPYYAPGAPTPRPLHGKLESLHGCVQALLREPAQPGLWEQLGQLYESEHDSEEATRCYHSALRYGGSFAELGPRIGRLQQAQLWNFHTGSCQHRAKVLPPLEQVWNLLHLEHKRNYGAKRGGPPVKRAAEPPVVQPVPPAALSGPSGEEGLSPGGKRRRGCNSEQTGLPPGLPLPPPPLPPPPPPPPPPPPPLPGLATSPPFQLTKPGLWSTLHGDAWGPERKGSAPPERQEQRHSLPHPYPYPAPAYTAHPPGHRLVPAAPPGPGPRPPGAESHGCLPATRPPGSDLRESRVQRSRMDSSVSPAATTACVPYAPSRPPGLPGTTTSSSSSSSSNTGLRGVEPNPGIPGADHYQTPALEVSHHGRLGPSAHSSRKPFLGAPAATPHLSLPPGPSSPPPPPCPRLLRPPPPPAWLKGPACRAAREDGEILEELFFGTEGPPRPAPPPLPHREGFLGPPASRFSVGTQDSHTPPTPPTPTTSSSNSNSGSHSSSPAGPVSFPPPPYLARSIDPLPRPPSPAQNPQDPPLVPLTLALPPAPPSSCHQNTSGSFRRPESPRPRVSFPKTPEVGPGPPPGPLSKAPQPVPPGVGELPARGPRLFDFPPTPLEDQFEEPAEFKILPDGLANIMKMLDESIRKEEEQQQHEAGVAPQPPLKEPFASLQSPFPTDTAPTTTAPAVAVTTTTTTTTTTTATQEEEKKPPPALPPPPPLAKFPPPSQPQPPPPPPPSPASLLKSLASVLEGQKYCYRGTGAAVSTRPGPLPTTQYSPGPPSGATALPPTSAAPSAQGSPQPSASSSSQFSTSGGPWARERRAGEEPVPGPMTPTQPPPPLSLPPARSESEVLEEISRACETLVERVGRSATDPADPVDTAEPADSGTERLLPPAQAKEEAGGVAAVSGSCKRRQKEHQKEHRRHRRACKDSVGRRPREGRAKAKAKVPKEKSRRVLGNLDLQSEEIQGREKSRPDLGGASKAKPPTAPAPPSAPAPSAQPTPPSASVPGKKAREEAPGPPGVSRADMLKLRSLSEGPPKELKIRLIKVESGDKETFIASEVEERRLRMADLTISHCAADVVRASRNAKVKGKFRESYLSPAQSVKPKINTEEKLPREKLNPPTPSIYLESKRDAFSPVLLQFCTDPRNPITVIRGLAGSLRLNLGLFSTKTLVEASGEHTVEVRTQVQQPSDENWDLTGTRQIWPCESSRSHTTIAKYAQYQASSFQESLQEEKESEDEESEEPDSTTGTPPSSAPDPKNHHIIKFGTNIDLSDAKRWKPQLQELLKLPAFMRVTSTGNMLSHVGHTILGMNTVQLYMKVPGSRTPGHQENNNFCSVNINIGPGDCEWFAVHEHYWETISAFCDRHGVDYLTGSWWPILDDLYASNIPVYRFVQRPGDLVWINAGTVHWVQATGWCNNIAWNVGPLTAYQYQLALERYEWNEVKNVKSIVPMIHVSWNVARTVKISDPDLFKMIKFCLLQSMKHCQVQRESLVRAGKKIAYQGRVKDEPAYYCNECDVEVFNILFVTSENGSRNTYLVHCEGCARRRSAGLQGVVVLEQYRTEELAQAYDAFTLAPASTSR
Chain of CYP2D6 (P10635 whole entry): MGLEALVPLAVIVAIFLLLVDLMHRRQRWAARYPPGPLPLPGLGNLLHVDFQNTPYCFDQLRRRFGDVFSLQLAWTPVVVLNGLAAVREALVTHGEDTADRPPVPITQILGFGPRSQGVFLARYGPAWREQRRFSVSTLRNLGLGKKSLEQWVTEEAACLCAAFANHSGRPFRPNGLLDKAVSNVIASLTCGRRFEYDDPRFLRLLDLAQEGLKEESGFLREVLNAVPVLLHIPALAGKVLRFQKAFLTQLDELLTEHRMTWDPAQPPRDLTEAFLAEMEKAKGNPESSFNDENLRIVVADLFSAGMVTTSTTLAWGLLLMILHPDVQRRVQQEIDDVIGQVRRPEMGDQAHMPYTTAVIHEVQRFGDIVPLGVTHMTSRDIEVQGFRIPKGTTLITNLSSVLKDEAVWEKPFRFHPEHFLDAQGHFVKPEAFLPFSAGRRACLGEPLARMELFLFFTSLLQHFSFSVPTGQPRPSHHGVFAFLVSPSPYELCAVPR

IC50 [2]: 1200 nM
Structure (SMILES): O=C(O)CCNc1nc(N2CCC(c3ccccc3)CC2)cc(-n2nccn2)n1

IC50 [2]: 740 nM
Structure (SMILES): O=C(O)CCNc1nc(N2CCN(c3ccc(Cl)c(Cl)c3)CC2)cc(-n2cccn2)n1

IC50 [2]: 10000 nM
Structure (SMILES): O=C(O)CCNc1nc(N2CCN(c3ccc(F)cc3)CC2)cc(-n2ccnn2)n1

IC50 [2]: 1500 nM
Structure (SMILES): O=C(O)CCNc1nc(N2CCc3ccccc3C2)cc(-n2nccn2)n1

inhibition [1]: 54%
Structure (SMILES): O=C(O)CCNc1nc(N2CCN(c3ccccn3)CC2)cc(-n2cc3ccccc3n2)n1

IC50 [2]: 900 nM
Structure (SMILES): O=C(O)CCNc1nc(-c2nccs2)cc(N2CCN(c3ccccn3)CC2)n1

IC50 [2]: > 20000 nM
Structure (SMILES): COc1ccccc1N1CCN(c2cc(-n3nccn3)nc(NCCC(=O)O)n2)CC1

IC50 [2]: 2600 nM
Structure (SMILES): O=C(O)CCNc1nc(N2CCN(c3ccc(F)cc3)CC2)cc(-n2nccn2)n1

IC50 [2]: > 20000 nM
Structure (SMILES): COc1ccccc1N1CCN(c2cc(-n3cccn3)nc(NCCC(=O)O)n2)CC1

IC50 [2]: 1000 nM
Structure (SMILES): O=C(O)CCNc1nc(N2CCN(c3ccccn3)CC2)cc(-n2cccn2)n1

IC50 [2]: 2100 nM
Structure (SMILES): COc1ccccc1N1CCN(c2cc(-c3nccs3)nc(NCCC(=O)O)n2)CC1

IC50 [2]: 1400 nM
Structure (SMILES): O=C(O)CCNc1nc(N2CCN(c3ccc(Cl)c(Cl)c3)CC2)cc(-n2nccn2)n1

IC50 [2]: 1300 nM
Structure (SMILES): O=C(O)CCNc1nc(N2CCN(c3ccccn3)CC2)cc(-n2nccn2)n1

IC50 [2]: 550 nM
Structure (SMILES): O=C(O)CCNc1nc(N2CCN(c3ccc(F)cc3)CC2)cc(-n2cccn2)n1

inhibition at 20 min, 10 µM (CYP2C19): 4% | IC50 [2]: 270 nM | half-life at 1 µM [5]: 38.5 h | inhibition at 20 min, 10 µM (CYP2D6): 6% | inhibition at 20 min, 10 µM (CYP1A2): 4% | inhibition at 20 min, 10 µM (CYP2C9): 4% | microsomal CLint at 1 µM [6]: 1 µL/min/mg | inhibition at 20 min, 10 µM (CYP3A4): 7%
Structure (SMILES): O=C(O)CCNc1nc(N2CCc3ccccc3CC2)cc(-n2nccn2)n1

Second part, the molecule before the results:

Structure (SMILES): Cc1ccccc1CNc1cc(-c2nccs2)nc(NCCC(=O)O)n1
inhibition [1]: -0.6%

Structure (SMILES): O=C(O)CCNc1nc(NCc2cc(C(F)(F)F)cc(C(F)(F)F)c2)cc(-c2nccs2)n1
inhibition [1]: 1%

Structure (SMILES): CCOC(=O)CCNc1nc(N2CCc3ccccc3CC2)cc(-n2cccn2)n1
inhibition (RAW264.7 [3]): Dose-dependent effect | inhibition (RAW264.7 [4]): Active

Structure (SMILES): O=C(O)CCNc1nc(-c2nccs2)cc(N2CCC(N3CCCC3)CC2)n1
inhibition [1]: -8.4%

Structure (SMILES): CCOC(=O)CCNc1cc(N2CCc3ccccc3CC2)nc(-c2ccccn2)n1
inhibition (RAW264.7 [3]): Active | inhibition (RAW264.7 [4]): Active

Structure (SMILES): O=C(O)CCNc1nc(N2CCC(c3ccccc3)CC2)cc(-n2cc3ccccc3n2)n1
inhibition [1]: 30%

Structure (SMILES): O=C(O)CCNc1nc(N2CCC(c3ccccc3)CC2)cc(-n2cccn2)n1
IC50 [2]: 750 nM

Structure (SMILES): O=C(O)CCNc1nc(-c2nccs2)cc(N2CCN(c3ccc(Cl)c(Cl)c3)CC2)n1
IC50 [2]: 940 nM

Structure (SMILES): CC(=O)N1CCN(c2cc(-c3nccs3)nc(NCCC(=O)O)n2)CC1
inhibition [1]: 32.9%

Structure (SMILES): Cc1ccccc1C1CCN(c2cc(-c3nccs3)nc(NCCC(=O)O)n2)CC1
inhibition [1]: 87.5%

Structure (SMILES): O=C(O)CCNc1nc(-c2nccs2)cc(N2CCc3ccccc3CC2)n1
inhibition at 20 min, 10 µM (CYP2C19): 13% | IC50 [2]: 200 nM | half-life at 1 µM [5]: 4.44 h | inhibition at 20 min, 10 µM (CYP2D6): 8% | inhibition at 20 min, 10 µM (CYP1A2): 9% | inhibition at 20 min, 10 µM (CYP2C9): 9% | microsomal CLint at 1 µM [6]: 5 µL/min/mg | inhibition at 20 min, 10 µM (CYP3A4): 12%

Structure (SMILES): O=C(O)CCNc1nc(N2CCc3ccccc3CC2)cc(-n2cccn2)n1
inhibition at 20 min, 10 µM (CYP2C19): 3% | IC50 [2]: 150 nM | half-life at 1 µM [5]: > 11.6 h | inhibition at 20 min, 10 µM (CYP2D6): 5% | inhibition at 20 min, 10 µM (CYP1A2): 5% | inhibition at 20 min, 10 µM (CYP2C9): 5% | inhibition at 20 min, 10 µM (CYP3A4): 3%

Structure (SMILES): O=C(O)CCNc1nc(N2CCc3ccccc3CC2)cc(-n2cc3ccccc3n2)n1
inhibition at 20 min, 10 µM (CYP2C19): 11% | IC50 [2]: 2200 nM | half-life at 1 µM [5]: 4.28 h | inhibition at 20 min, 10 µM (CYP2D6): 0% | inhibition at 20 min, 10 µM (CYP1A2): 8% | inhibition at 20 min, 10 µM (CYP2C9): 17% | microsomal CLint at 1 µM [6]: 5 µL/min/mg | inhibition at 20 min, 10 µM (CYP3A4): 4%

Structure (SMILES): O=C(O)CCNc1nc(N2CCc3ccccc3C2)cc(-n2cc3ccccc3n2)n1
IC50 [2]: 6100 nM

Structure (SMILES): O=C(O)CCNc1nc(N2CCc3ccccc3CC2)cc(-n2ccnn2)n1
inhibition at 20 min, 10 µM (CYP2C19): 8% | IC50 [2]: 210 nM | half-life at 1 µM [5]: > 11.6 h | inhibition at 20 min, 10 µM (CYP2D6): 6% | inhibition at 20 min, 10 µM (CYP1A2): 1% | inhibition at 20 min, 10 µM (CYP2C9): 1% | inhibition at 20 min, 10 µM (CYP3A4): 7%

Structure (SMILES): COc1cc(CNc2cc(-c3nccs3)nc(NCCC(=O)O)n2)cc(OC)c1
inhibition [1]: -8.7%

Structure (SMILES): CN(Cc1ccco1)c1cc(-c2nccs2)nc(NCCC(=O)O)n1
inhibition [1]: 43.9%

Structure (SMILES): O=C(O)CCNc1nc(NC2CCN(Cc3ccccc3)CC2)cc(-c2nccs2)n1
inhibition [1]: 10%

Structure (SMILES): CCOC(=O)CCNc1nc(-c2nccs2)cc(N2CCc3ccccc3CC2)n1
inhibition (RAW264.7 [3]): Active | inhibition (RAW264.7 [4]): Active

Structure (SMILES): O=C(O)CCNc1nc(N2CCN(c3ccc(F)cc3)CC2)cc(-n2cc3ccccc3n2)n1
IC50 [2]: 5800 nM

Structure (SMILES): CC(C)(C)OC(=O)NC1CCN(c2cc(-c3nccs3)nc(NCCC(=O)O)n2)CC1
inhibition [1]: 9.8%

Structure (SMILES): O=C(O)CCNc1nc(NC2Cc3ccccc3C2)cc(-c2nccs2)n1
inhibition [1]: 21.1%

Structure (SMILES): O=C(O)CCNc1nc(N2CCN(c3ccc(Cl)c(Cl)c3)CC2)cc(-n2ccnn2)n1
inhibition [1]: 74%

Structure (SMILES): CCOC(=O)CCNc1nc(N2CCc3ccccc3CC2)cc(-n2nccn2)n1
inhibition (RAW264.7 [3]): Dose-dependent effect | inhibition (RAW264.7 [4]): Active

Structure (SMILES): O=C(O)CCNc1nc(N2CCc3ccccc3C2)cc(-n2ccnn2)n1
IC50 [2]: 1400 nM

Structure (SMILES): O=C(O)CCNc1nc(N2CCc3ccccc3C2)cc(-n2cccn2)n1
IC50 [2]: 490 nM

Structure (SMILES): O=C(O)CCNc1nc(N2CCC(c3ccccc3)CC2)cc(-n2ccnn2)n1
IC50 [2]: 2100 nM

Structure (SMILES): O=C(O)CCNc1nc(-c2nccs2)cc(N2CCC(c3ccccc3)CC2)n1
IC50 [2]: 1200 nM

Structure (SMILES): CC(C)NC(=O)CN1CCN(c2cc(-c3nccs3)nc(NCCC(=O)O)n2)CC1
inhibition [1]: -5.1%

Structure (SMILES): O=C(O)CCNc1nc(-c2nccs2)cc(N2CCc3ccccc3C2)n1
IC50 [2]: 990 nM

Structure (SMILES): O=C(O)CCNc1nc(-c2nccs2)cc(N2CCN(c3ccc(F)cc3)CC2)n1
IC50 [2]: 600 nM

Structure (SMILES): O=C(O)CCNc1cc(N2CCc3ccccc3CC2)nc(-c2ccccn2)n1
inhibition at 20 min, 10 µM (CYP2C19): 16% | half-life at 1 µM [5]: 8.25 h | inhibition at 20 min, 10 µM (CYP2D6): 20% | inhibition at 20 min, 10 µM (CYP1A2): 10% | inhibition at 20 min, 10 µM (CYP2C9): 5% | microsomal CLint at 1 µM [6]: 3 µL/min/mg

Structure (SMILES): CCOC(=O)CCNc1nc(N2CCc3ccccc3CC2)cc(-n2ccnn2)n1
inhibition (RAW264.7 [3]): Active | inhibition (RAW264.7 [4]): Active

Structure (SMILES): O=C(O)CCNc1nc(N2CCN(c3ccc(Cl)c(Cl)c3)CC2)cc(-n2cc3ccccc3n2)n1
IC50 [2]: > 100000 nM
